Laboratory results reported in patent publication US8273771B2, “Ischemic disorder or disease inhibitors” (Pronas Pharma AB, priority 2007, dated 2012).
Where two headings read alike, the source gives them in different places.

Key:
5-HT1B receptor mRNA = test: Real-time PCR of receptor mRNA in cerebral arteries after SAH; assay type: in vivo, rat; details: MCA, BA and circle of Willis grouped; SAH rats
Procedure: (§1) To quantify mRNA for the ETA, ETB and 5-HT1B receptors, RT-PCR and real-time detection monitoring the PCR products was employed. Total cellular RNA was extracted from BA, MCA and circle of Willis using the Trizol RNA isolation kit (Invitrogen, USA) following the suppliers instructions. Briefly, the arteries were homogenized in 1 ml of Trizol (Invitrogen, Sweden) by using a TissueLyser (VWR, Sweden). Subsequently 200 μl of chloroform was added and the samples were incubated in room temperature for 3 min, followed by centrifugation at 15000 g for 15 min at 4° C. The supernatant was collected and the organic phase discarded. 200 μl of chloroform was again added to remove all traces of phenol and the samples were centrifuged at 15000 g for 15 at 4° C. The aqueous supernatant was again collected and to precipitate the RNA equal amount of isopropanol was added and the samples incubated overnight at −20° C.
(§2) Subsequently, the RNA was centrifuged at 15000 g for 20 min at 4° C. […] Total RNA was determined using a GeneQuant Pro spectrophotometer measuring absorbance at 260/280 (Amersham Pharmacia Biotech, Uppsala, Sweden).
(§3) Reverse transcription of total RNA to cDNA was carried out using the Gene Amp RNA kit (Perkin-Elmer Applied Biosystems, USA) in a Perkin-Elmer 2400 PCR machine at 42° C. for 90 min and then 72° C. for 10 min. The real-time quantitative PCR was performed with the GeneAmp SYBR Green PCR kit (PE Applied Biosystems) in a Perkin-Elmer real-time PCR machine (GeneAmp 5700 sequence detection system). […] The system automatically monitors the binding of a fluorescent dye to double-strand DNA by real-time detection of the fluorescence during each cycle of PCR amplification. […]
(§4) PCR experiments were performed on BA, MCA and circle of Willis from SAH, SAH treated with raf inhibitor or PKC inhibitor and sham operated rats. Data were analysed with the comparative cycle threshold (CT) method (28). The CT values of EF-1 mRNA were used as a reference to quantify the relative amount of ETA, ETB and 5-HT1B mRNA. […]

ETA receptor mRNA = test: as above; assay type: in vivo, rat; details: MCA, BA and circle of Willis grouped
Procedure: as §1, §2, §3, §4

ETB receptor mRNA = test: as above; assay type: in vivo, rat; details: MCA, BA and circle of Willis grouped; SAH rats
Procedure: as §1, §2, §3, §4

AT1 receptor mRNA = test: as above; assay type: in vivo, rat; details: MCA, BA and circle of Willis grouped; SAH rats
pERK1/2 = test: Immunohistochemistry of cerebral arteries after SAH; assay type: in vivo, rat; details: smooth muscle cells; sham 100±3%, SAH 188±7%
[1] = test system: rats after MCA occlusion and reperfusion; details: for brain damage (% of total volume): control 24.8±2%; for oedema (% of total volume): control 1.01±0.03
Procedure: This group of animals went through the same procedure as the above-mentioned SAH animals. Two hours after the MCA occlusion, the rat was re-anesthetized to allow for withdrawal of the filament and subsequent reperfusion of the brain. In conjunction with the reperfusion (0 h), at 6 h or at 12 h afterwards, and at 24 h after the start of the reperfusion in the same animal, the rats were injected intraperitoneal with 30 mg/kg U0126 dissolved in dimethylsulfoxide (DMSO). […] Control rats were injected with an equal volume of DMSO at the same time points.

Row | Structure (SMILES) | enhanced expression of 5-HT1B receptor mRNA (5-HT1B receptor mRNA) | expression of ETA receptor mRNA, difference between sham, SAH and treated SAH (ETA receptor mRNA) | enhanced expression of ETB receptor mRNA (ETB receptor mRNA) | enhanced expression of AT1 receptor mRNA (AT1 receptor mRNA) | pERK1/2 level, fluorescence compared to sham (pERK1/2) | brain damage (% of total volume) ([1]; 30 mg/kg i.p. starting after 12 h) | brain damage (% of total volume) ([1]; 30 mg/kg i.p. starting at 0 h after MCAO reperfusion) | brain damage (% of total volume) ([1]; 30 mg/kg i.p. starting at 6 h) | lowest dose that elicited a clear significant effect on infarct volume ([1]; intraperitoneal, doses 10 to 100 mg/kg evaluated, preliminary experiments) | oedema (% of total volume) ([1]; treatment starting at 0 h) | oedema (% of total volume) ([1]; treatment starting at 6 h) | oedema (% of total volume) ([1]; treatment starting at 12 h)
1 | Oc1cc(-c2nc(-c3ccccc3)[nH]c2-c2ccncc2)ccc1Cl [SB386023-b] | inhibited | no difference | inhibited | inhibited | 102±5% | – | – | – | – | – | – | –
2 | N#CC(=C(/N)Sc1ccccc1N)/C(C#N)=C(\N)Sc1ccccc1N [U0126] | – | – | – | – | – | 20.3±1% | 11.8±2% | 14.6±3% | 30 mg/kg | 1.05±0.02 % of total volume | 0.98±0.02 % of total volume | 1.02±0.04 % of total volume
